# Data as given in paper PMC8019567 (Parasite, 2021).
# Like-named read-outs stand apart in the source and are kept apart here.
# Columns and labels:
# [1] = first (pilot) study; topical esafoxolaner only, twice at a 28-day interval, 23× the maximum exposure dose; cats; cited from earlier work
# [2] = Study #2: dose proportionality/linearity after a single topical dose of NexGard Combo at 0.5x, 1x, 2x; format: in vivo, cats
# Protocol: Blood samples were collected prior to treatment and over a period of 91 days after the treatment, as detailed in Table 1. […] Dose proportionality for the three active ingredients was assessed by calculating the linear relationship between AUC or Cmax and the dose using the simple linear regression model.
# C. felis = test system: C. felis; set-up: method as in internal Sponsor’s data; settings: plasma level, ref internal Sponsor’s data; cited from earlier work
# [3] = in vivo
# Description: (§1) All topical treatments were applied on one spot directly on the skin, after parting the hair, in the midline of the neck between the base of the skull and the shoulder blades. The intra-venous injection was given in the cephalic vein.
# (§2) All blood samples were collected into lithium heparin tubes and processed into plasma by centrifugation.
# (§3) This study was designed to evaluate the main pharmacokinetic parameters (Cmax, Tmax, Clast, Tlast, half-life, AUC, bioavailability) of the three compounds administered topically once in the novel formulation at the recommended minimum dose, and the non-interference of the three compounds between each other.
# (§4) Group 2 was treated topically with esafoxolaner alone, formulated with identical solvents/excipients as those of the novel formulation, for non-interference evaluation of esafoxolaner. […] Group 4 was treated intravenously with esafoxolaner for bioavailability calculation of topical esafoxolaner in the novel formulation.
# (§5) The cat plasma samples and internal standards were subjected to semi-automated solid phase extraction in a 96-well plate format followed by reversed-phase HPLC with gradient elution. The extracted analytes were quantified by an AB Sciex API 5000 mass spectrometer system using an electrospray interface. […] Chromatograms were integrated by the Analyst® 1.6.2 software and peak areas were determined.
# (§6) The validated lower and upper limits of quantitation were 0.2 and 100 ng/mL, respectively. Sample concentrations were determined based on a fortified matrix calibration curve ranging from 0.2 to 100 ng/mL for each analyte with quality control samples, control plasma samples, and acceptance criteria according to EMA and FDA guidelines [4, 7]. Repeatability (precision), accuracy, assay specificity, dilution, recovery and matrix effect, carryover, stability in plasma and all solutions was established.
# (§7) Pharmacokinetic (PK) parameters were calculated from individual plasma concentrations using the non-compartmental analysis function of WinNonlin® software (Phoenix 64 Build, version 6.3). The non-compartmental approach was consistent with the extravascular (topical) or IV bolus route of administration.
# (§8) The peak drug plasma concentration Cmax and the time from dosing to the maximum concentration values Tmax were obtained directly from plasma concentration versus time data for each cat and then averaged for each topical treatment group. The terminal elimination phase was determined using at least the final three observed concentrations and not including Cmax. The first order rate constant, λz, associated with the terminal log-linear portion of the curve was estimated via linear regression of the log plasma concentration versus time curve. The terminal plasma half-life using ln (2)/λz was calculated for each animal, and then averaged for each treatment group. The area under the concentration versus time curve (AUC) from the time of dosing to the time to the last quantifiable concentration (AUC0−Tlast) was calculated using the linear up, log down trapezoidal method, and extrapolated to infinity (AUC0−inf) using the formula AUC0−Tlast + Clast/λz.
# (§9) The systemic clearance of esafoxolaner in plasma (Cls) defined as dose/AUC0−inf, and the volume of distribution at steady state (Vss), which is AUMC0−inf/AUC0−inf × Cls, was calculated from WinNonlin® for the IV esafoxolaner group only. Due to the long terminal plasma half-life of esafoxolaner, each cat was not used as its own control and bioavailability was calculated on the average.
# [4] = test system: ticks (Ixodes scapularis); set-up: method as in internal Sponsor’s data; settings: plasma level, ref internal Sponsor’s data; cited from earlier work
# [5] = set-up: method as in PMID 24703069; settings: topical Broadline; cats; cited from earlier work
# in vivo = settings: topical or ocular, 10 mg/kg
# Description: as §1, §2, §3, §4, §5, §6, §7, §8, §9
# ear mites = test system: ear mites; set-up: method as in PMID 29887026; settings: off-label in cats, 2.5 mg/kg; cited from earlier work
# [6] = Study #2: multiple-dose kinetics, accumulation and time to steady state (five topical doses at 28-day intervals); format: in vivo; settings: repeated topical NexGard Combo at minimum recommended dose at 4-week intervals; cats
# Protocol: Group 4, the accumulation and time to steady state group, was treated five times at 28-day intervals, topically with NexGard® Combo at the minimum recommended dose. In this group, blood samples were collected prior to each treatment, during the 4 weeks following each treatment, and for 8 weeks after the last treatment, as detailed in Table 1.
# Chromatograms were integrated by the Analyst® 1.6.2 software and peak areas were determined.
# The validated lower and upper limits of quantitation were 0.2 and 100 ng/mL, respectively. Sample concentrations were determined based on a fortified matrix calibration curve ranging from 0.2 to 100 ng/mL for each analyte with quality control samples, control plasma samples, and acceptance criteria according to EMA and FDA guidelines.
# Accumulation ratios were calculated using Cmax and AUC for the three active ingredients after the 1st and 5th dose following five topical doses of the novel formulation.
# [7] = Study #1: single-dose pharmacokinetics and non-interference in cats (plasma, LC-MS/MS); settings: NexGard Combo single topical at minimum recommended dose
# Description: as §1, §2, §3, §4, §5, §6, §7, §8, §9
# [8] = 0.5× group compared to 1× group
# [9] = NexGard Combo single topical 0.5× (esafoxolaner 0.72, praziquantel 5, eprinomectin 0.25 mg/kg), cats, mean
# [10] = NexGard Combo single topical 1× (esafoxolaner 1.44, praziquantel 10, eprinomectin 0.5 mg/kg), cats, mean
# [11] = NexGard Combo single topical 2× (esafoxolaner 2.88, praziquantel 20, eprinomectin 1 mg/kg), cats, mean
molecule,measurement,setting,value
"O=C(CNC(=O)c1ccc(C2=NO[C@@](c3cc(Cl)cc(C(F)(F)F)c3)(C(F)(F)F)C2)c2ccccc12)NCC(F)(F)F [Esafoxolaner, esafoxolaner]",adverse reactions,[1],no significant adverse reactions
same,dose proportionality of PK parameters,[2]; in vivo,dose-proportional
same,persistence of a quantifiable plasma concentration,[2]; in vivo,more than 13 weeks
same,EC90,C. felis,0.0191 ± 0.0021 µg/mL
same,Vss (volume of distribution),[3],4.0 L/kg
same,absolute (topical) bioavailability,[3],47.2%
same,"time until which efficacious plasma levels (EC90) were maintained, from 24 h",[3],6-8 weeks
same,AUC0−Tlast,"[3]; iv, 1.44 mg/kg",9586 ± 1985 ng·days/mL
same,AUC0−inf,"[3]; iv, 1.44 mg/kg","10,542 ± 2029 day × ng/mL"
same,Cl (systemic clearance),"[3]; iv, 1.44 mg/kg",5.87 ± 1.23 mL/h/kg
same,T1/2 (plasma half-life),"[3]; iv, 1.44 mg/kg",504 ± 101 h
same,Vss (volume of distribution at steady-state),"[3]; iv, 1.44 mg/kg",4.016 ± 1.19 L/kg
same,"half-life, range of individuals","[3]; iv, 1.44 mg/kg",355 to 631 h
same,AUC0−Tlast,"[3]; topical or ocular, 1.44 mg/kg",6368 ± 1665 ng·days/mL
same,AUC0−inf,"[3]; topical or ocular, 1.44 mg/kg",7181 ± 2250 ng·days/mL
same,Cmax,"[3]; topical or ocular, 1.44 mg/kg",218 ± 68 ng/mL
same,T1/2 (plasma half-life),"[3]; topical or ocular, 1.44 mg/kg",499 ± 154 h
same,Tmax,"[3]; topical or ocular, 1.44 mg/kg",90 ± 74.4 h
same,individual plasma half-lives (range),"[3]; topical or ocular, 1.44 mg/kg",19.4 to 27.8 days
same,EC90,[4],0.0431 µg/mL
"O=C(C1CCCCC1)N1CC(=O)N2CCc3ccccc3C2C1 (stereo not drawn) [Praziquantel, praziquantel]",bioavailability in the Broadline formulation,[5],45%
same,Cmax,"[2]; in vivo, topical or ocular, 5 mg/kg",54.7 ± 28.8 ng/mL
same,Cmax,"[2]; in vivo, topical or ocular, 10 mg/kg",126 ± 87.2 ng/mL
same,Cmax,"[2]; in vivo, topical or ocular, 20 mg/kg",317 ± 209 ng/mL
same,time at which maximum concentrations were reached (range),[3]; cat,4 to 8 h
same,time of last quantifiable plasma concentrations (range),[3]; cat,7 to 42 days
same,Cmax,in vivo,107 ± 59 ng/mL
same,Tmax,in vivo,7.01 h
same,half-life,in vivo,103 h
O=C(CNC(=O)c1ccc(C2=NOC(c3cc(Cl)cc(C(F)(F)F)c3)(C(F)(F)F)C2)c2ccccc12)NCC(F)(F)F (stereo not drawn) [afoxolaner],acaricidal efficacy against ear mites,ear mites,efficacious
eprinomectin,bioavailability in the Broadline formulation,[5],31%
same,AUC0−Tlast Ratio,[2]; [8],0.5
same,Cmax Ratio,[2]; [8],0.4
same,dose proportionality of PK parameters,"[2]; 0.5× to 2× the minimum dose (esafoxolaner 0.72–2.88, praziquantel 5–20, eprinomectin 0.25–1.0 mg/kg), single topical NexGard Combo",dose-proportional
same,AUC0−Tlast Ratio,[2]; 2× group compared to 1× group,2.4
same,Cmax Ratio,[2]; 2× group compared to 1× group,2.3
same,AUC0−Tlast,[2]; [9],53.6 ± 19.9 ng·days/mL
same,Cmax,[2]; [9],9.44 ± 4.26 ng/mL
same,AUC0−Tlast,[2]; [10],97.8 ± 37.4 ng·days/mL
same,Cmax,[2]; [10],24.1 ± 20.8 ng/mL
same,AUC0−Tlast,[2]; [11],233 ± 133 ng·days/mL
same,Cmax,[2]; [11],54.3 ± 35.8 ng/mL
same,dose by which steady state was reached,[6],fifth and five
same,mean Tmax,[7],35 h
same,"time to concentrations below the limit of quantitation, on average",[7]; LLOQ 0.2 ng/mL,28 days
